The values that follow come from ChEMBL document CHEMBL1139779, “3,3-diphenylpentane skeleton as a steroid skeleton substitute: novel inhibitors of human 5alpha-reductase 1” (Bioorg Med Chem Lett, 2007).

For data set [1], the target named is T1, 3-oxo-5-alpha-steroid 4-dehydrogenase 1 (Homo sapiens) (UniProt P18405).
T1 sequence (whole entry): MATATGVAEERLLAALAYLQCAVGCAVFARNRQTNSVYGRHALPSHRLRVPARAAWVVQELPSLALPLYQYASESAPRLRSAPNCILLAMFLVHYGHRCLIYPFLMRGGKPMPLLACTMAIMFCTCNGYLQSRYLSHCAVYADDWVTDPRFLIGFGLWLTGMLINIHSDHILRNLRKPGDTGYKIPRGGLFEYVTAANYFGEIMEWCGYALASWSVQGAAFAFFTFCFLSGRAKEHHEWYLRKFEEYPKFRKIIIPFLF
The experiment in a line: Inhibition of human 5-alpha reductase 1 expressed in LNCap cells at 10 uM. It counts as cell-based.

The target of data set [2] is T1, 3-oxo-5-alpha-steroid 4-dehydrogenase 1 (Homo sapiens). The experiment in a line: Inhibition of human 5-alpha reductase 1 expressed in LNCap cells at 1 uM. It counts as cell-based.
Data set [3] deals with T2, 3-oxo-5-alpha-steroid 4-dehydrogenase 1 (Homo sapiens, UniProt P18405).
T2 sequence (P18405 whole entry): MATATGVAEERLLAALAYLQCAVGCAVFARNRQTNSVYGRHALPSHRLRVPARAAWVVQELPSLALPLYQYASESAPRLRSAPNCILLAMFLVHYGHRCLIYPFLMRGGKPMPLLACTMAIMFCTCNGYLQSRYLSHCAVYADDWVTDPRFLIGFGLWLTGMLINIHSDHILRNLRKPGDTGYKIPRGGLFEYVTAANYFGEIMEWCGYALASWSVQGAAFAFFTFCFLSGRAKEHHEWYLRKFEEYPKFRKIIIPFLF
Kind of data set: Inhibition of human 5-alpha reductase 1 expressed in LNCap cells. It counts as cell-based.

Substrate in data set [4]: CCC(CC)(c1ccc(OC(=O)N(Cc2ccccc2)Cc2ccccc2)cc1)c1ccc(N(C)C(C)=O)cc1
Kind of data set: Activity of 5-alpha reductase 1 at 1 uM.

One may read the inhibition as the drop in the measured response relative to a control, in per cent. The IC50 is the point on the concentration scale where inhibition reaches its midpoint. Lower therefore signals greater potency. What is called Km is the concentration of substrate that gives half-maximal velocity. One may read the Vmax as the top rate of the reaction or transport when substrate is in excess.

For the molecule `CCN(CC)C(=O)Oc1ccc(C(CC)(CC)c2ccc(N(C)C(C)=O)cc2)cc1C`, the inhibition in data set [1] came out at 56%.
For `CCC(C)N(C(=O)Oc1ccc(C(CC)(CC)c2ccc(N(C)C(C)=O)cc2)cc1)C(C)CC` (configuration not stated), the inhibition in data set [2] was determined as 22%.
`CCC(CC)(c1ccc(OC(=O)N2CCCC2)cc1)c1ccc(N(C)C(C)=O)cc1` displayed an inhibition in data set [1] of 57%.
Same read-out and setting: as for `CCN(CC)C(=O)Oc1ccc(C(CC)(CC)c2ccc(N(C)C(C)=O)c(C)c2)cc1C`, the figure is 22%.
Same read-out and setting: the figure for `CCN(CC)C(=O)Oc1ccc(C2(c3ccc(N(C)C(C)=O)cc3)CCCC2)cc1` is 5%; for `CCN(CC)C(=O)Oc1ccc(C(C)(C)c2ccc(N(C)C(C)=O)cc2)cc1` it is 16%.
On the same count and under the same terms, the figure for `CCC(CC)(c1ccc(OC(=O)N(C)C)cc1)c1ccc(N(C)C(C)=O)cc1` is 29%.
Regarding `CCC(CC)(c1ccc(OC(=O)N(Cc2ccccc2)Cc2ccccc2)cc1)c1ccc(N(C)C(C)=O)cc1`, in data set [3], it took 0.84 µM to reach half-maximal inhibition (IC50). In data set [2], this molecule came in with an inhibition of 51%.
As to `CCN(CC)C(=O)Oc1ccc(C(CC)(CC)c2ccc(N(C)C(C)=O)c(C)c2)cc1`, the inhibition in data set [1] is 25%.
In data set [1], `CCC(CC)(c1ccc(OC(=O)N2CCCCC2)cc1)c1ccc(N(C)C(C)=O)cc1` displayed an inhibition of 68%. In addition, the IC50 in data set [3] was 4.7 µM.
Consider `CCN(CC)C(=O)Oc1ccc(C2(c3ccc(N(C)C(C)=O)cc3)CCC2)cc1`, for which the inhibition in data set [1] came to 16%.
In data set [1], `CCC(CC)(c1ccc(OC(=O)N2CCCCCC2)cc1)c1ccc(N(C)C(C)=O)cc1` came in with an inhibition of 70%. Moreover, it took 4.7 µM to reach half-maximal inhibition in data set [3] (IC50).
As to `CCC(CC)(c1ccc(OC(=O)N2CCN(C)CC2)cc1)c1ccc(N(C)C(C)=O)cc1`, the inhibition in data set [1] amounted to 17%.
As to `CCCN(CCC)C(=O)Oc1ccc(C(CC)(CC)c2ccc(N(C)C(C)=O)cc2)cc1`, the inhibition worked out at 77% in data set [1] and 26% in data set [2]. 2.9 µM corresponded to half-maximal inhibition in data set [3] (IC50).
For `CCC(CC)(c1ccc(OC(=O)N2CCOCC2)cc1)c1ccc(N(C)C(C)=O)cc1`, the inhibition in data set [1] was 15%.
In the case of `CCC(CC)(c1ccc(OC(=O)N2CCCCCCC2)cc1)c1ccc(N(C)C(C)=O)cc1`, in data set [2], the inhibition was determined as 20%.
For `CCC(CC)(c1ccc(OC(=O)N(C(C)C)C(C)C)cc1)c1ccc(N(C)C(C)=O)cc1`, the inhibition in data set [1] was 72%. In data set [3], half-maximal inhibition (IC50) was put at 4 µM.
On to `CCN(CC)C(=O)Oc1ccc(C2(c3ccc(N(C)C(C)=O)cc3)CCCCCC2)cc1`, for which, in data set [1], the inhibition is 25%.
In data set [1], `CCN(CC)C(=O)Oc1ccc(C(CC)(CC)c2ccc(N(C)C(C)=O)cc2)cc1` showed an inhibition of 65%. Moreover, the concentration for half-maximal inhibition (IC50) in data set [3] amounted to 9.2 µM.
Turning to `CCN(CC)C(=O)Oc1ccc(C2(c3ccc(N(C)C(C)=O)cc3)CCCCC2)cc1`, the inhibition in data set [1] amounted to 46%.
In the case of `CCCCN(CCCC)C(=O)Oc1ccc(C(CC)(CC)c2ccc(N(C)C(C)=O)cc2)cc1`, in data set [2], the inhibition came to 32%.
In data set [1], `CCN(CC)C(=O)Oc1ccc(C(CC)(CC)c2ccc(NC(C)=O)c(C)c2)cc1C` displayed an inhibition of 17%.
Still for that read-out and setting: as for `CCCC(CCC)(c1ccc(OC(=O)N(CC)CC)cc1)c1ccc(N(C)C(C)=O)cc1`, the figure is 27%.

B1: 3-oxo-5-alpha-steroid 4-dehydrogenase 1 (Homo sapiens), P18405 (protein)
chain: MATATGVAEERLLAALAYLQCAVGCAVFARNRQTNSVYGRHALPSHRLRVPARAAWVVQELPSLALPLYQYASESAPRLRSAPNCILLAMFLVHYGHRCLIYPFLMRGGKPMPLLACTMAIMFCTCNGYLQSRYLSHCAVYADDWVTDPRFLIGFGLWLTGMLINIHSDHILRNLRKPGDTGYKIPRGGLFEYVTAANYFGEIMEWCGYALASWSVQGAAFAFFTFCFLSGRAKEHHEWYLRKFEEYPKFRKIIIPFLF
Regarding B1, in data set [4], the Km came to 9.1 µM and the Vmax stood at 13.4 nM/h.
